This note sets out measurements from article PMC9506420, “Biological Evaluation of 3-Azaspiro[Bicyclo[3.1.0]Hexane-2,5′-Pyrimidines] as Potential Antitumor Agents” (International Journal of Molecular Sciences, 2022).

Where “and” joins values, the source holds several entries; their conditions need not be identical. Equal values may be shown once.

In data set [1] the test system is HeLa cells. The data set can be described thus: Annexin V-FITC/DAPI cell death analysis, HeLa. In kind it is cell-based, human. Particulars: 10 μg/mL, 72 h; for Necrotic Cells, %: control 0.5 ± 0.3; for Early Apoptotic Cells, %: control 4.5 ± 0.7; for Live Cells, %: control 89.0 ± 0.7; for Late Apoptotic Cells, %: control 5.9 ± 0.4. The protocol:
The results of cell death detection after the exposure of the HeLa and CT26 cell lines to spiro-fused cycloadducts 4c–i at a dose of 10 μg/mL for 72 h, using Annexin V-FITC/DAPI staining, are shown in Figure 6 and Figure 7, respectively.
Cells were seeded in 24-well plates, 5 × 10^4 cells per well. After 24 h incubation, cells were treated with compounds 4c–i for 72 h. Then, cells were washed, harvested by trypsinisation, stained with Annexin V-FITC ([…]) and DAPI (Thermo Fisher Scientific, Waltham, MA, USA), in accordance with the protocol of the manufacturer, and analyzed by flow cytometry. The proapoptotic effect of azaspiro[bicyclo[3.1.0]hexane-2,5′-pyrimidines] 4c–i was evaluated by an Annexin V-FITC/DAPI (AV/DAPI) dual-staining assay to examine the occurrence of phosphatidylserine externalization, which facilitated the detection of live cells (lower-left quadrant; AV−/DAPI−), early apoptotic cells (upper-left quadrant; AV+/DAPI−), late apoptotic cells (upper-right quadrant; AV+/DAPI+), and necrotic cells (lower-right quadrant; AV−/DAPI+).

For data set [2], the system named is HeLa cells. The data set can be described thus: Cell cycle distribution by flow cytometry (propidium iodide), HeLa. In kind it is cell-based, human. Particulars: for SubG1 (%) / G2/M (%) / S (%) / G0/G1 (%): HeLa, 10 μg/mL, 24 h; for SubG1 (%): control 2.3 ± 0.4; for G2/M (%): control 12.2 ± 1.3; for S (%): control 12.5 ± 1.7; for G0/G1 (%): control 73.1 ± 2.6; for cytostatic effect (cell cycle), HeLa: HeLa cell line. The method, then: One of the indicators of the influence of biologically active products on the cells is the changed distribution of cells during different stages of the cell cycle. In this work, recently synthesized compounds were tested using flow cytometry for their effect on the distribution of cells in the cell cycle (G0/G1, G2/M, and S). Figure 8, Figure 9 and Figure 10 and Table 3 show the typical data after processing the results from three replicates of each experiment.
The distribution of HeLa and CT26 cells in the G0/G1-, S-, and G2/M-phases of the cell cycle was obtained by quantification of DNA content in propidium-iodide-stained cells using flow cytometry. Briefly, cells were seeded in 24-well plates at a density of 5 × 10^4 cells per well. After 24 h incubation, cells were exposed to 10 μg/mL of compounds 4c–i (the structure is provided in Scheme 1) for 24 h. The effects of compounds 4d, 4e, 4g, 4h were additionally tested at concentrations of 2 and 5 μg/mL. After incubation with drugs, the cells were detached by exposure to trypsin-EDTA for 5 min at 37 °C and then collected by pipetting. This was followed by treatment with 0.2 mg/mL saponin (Fluka, Waltham, MA, USA), 0.25 mg/mL RNase (Sigma-Aldrich, St. Louis, MO, USA), and 0.05 mg/mL propidium iodide (Invitrogen, Carlsbad, CA, USA). After washing, the samples were analyzed by standard flow cytometer (BD FACSCanto II, Becton Dickinson, San Jose, CA, USA). Then, 10,000 events were acquired for the sample. Data processing was performed using BD FACSDiva 9.0 software.
In general terms: Flow cytometry measures light scatter and fluorescence of single cells or particles in a stream.

Another data set deals with CT26 tumor. The data set can be described thus: In vivo evaluation in CT26 tumor-bearing Balb/C mice. Particulars: for death of experimental animals by the end of the observation period: n = 7 per group, single i.p. 300 μL of 3 μM suspension, 10 days, control group one animal; for autopsy finding in the abdominal cavity (agglomerates of injected material): autopsy at end of experiment, diameter of up to 1 mm. The method, then: In vivo studies were performed using CT26 tumor-bearing Balb/C mice. After the average tumor volume reached approximately 270 mm^3, the mice were injected intraperitoneally with 300 μL of 3 μM suspension of compounds 4d, 4e, 4f, and 4i in 10% aq. DMSO solution. Mice in the control group were injected with 300 μL of 10% aq. DMSO solution. Observation of the animals continued for 10 days, with the measurement of tumor sizes two times a week.
All animals were bred and maintained in specific pathogen-free facilities in accordance with the Rus-LASA and FELASA guidelines. This study complied with all relevant ethical regulations for animal testing and research and received ethical approval from the Almazov National Medical Research Centre (protocol No. 21-02, dated 26 March 2021). Animal experiments were carried out in accordance with the principles of humane treatment of animals, regulated by requirements of Council of Europe 2006; European Convention for the Protection of Vertebrate Animals Used for Experimental and other Scientific Purposes (ETS No. 123); the European Parliament and the Council of the European Union 2010; Directive 2010/63/EU of the European Parliament and of the Council of 22 September 2010 on the Protection of Animals Used for Scientific Purposes; and FELASA guidelines. Male, 20–22 g, SPF Balb/C mice (Pushchino, Moscow region, Russian Federation) were used throughout. Animals were maintained at 22 ± 2 °C and relative humidity 50 ± 10% with 12 h light/dark cycle. All mice received water and food ad libitum. Animals were checked daily by the veterinarian, and their state of health was monitored continuously. Animal body weight was recorded every three days (GX-600 Precision Balance, A&D Weighing, San Jose, CA, USA).
The greatest transverse diameter (width) and the greatest longitudinal diameter (length) of a tumor were determined with a Vernier mechanical caliper. The tumor volume (V) was calculated using the following formula: V = length × width 2/2000 [50]. Mice were inoculated subcutaneously in the right flank, with 2 × 10^6 CT26 cells per mouse in PBS (Corning, Glendale, AZ, USA). Ten days later, when the average tumor volume reached […], the mice were randomized into groups (n = 7 per group). An amount of 300 μL of 3 μM suspension of compounds 4d, 4e, 4f, and 4i in 10% aq. DMSO solution was injected intraperitoneally at once. The control group was injected with 10% aq. DMSO solution only. The tumor volumes were monitored as described above, along with body weight. Mice were euthanized when the subcutaneous tumor reached a volume of […].

Turning to `CC[C@@H]1NC2(C(=O)NC(=O)NC2=O)[C@]2(c3ccccc3)[C@@H](c3ccccc3)[C@]12c1ccccc1` [Compound 4c], in the data set with HeLa cells [1], the “rate of cell death in HeLa vs control” value was “not different from the control”; the “Necrotic Cells, %” value is given as 2.2 ± 0.5 %; the “Early Apoptotic Cells, %” value was determined as 5.6 ± 1.3%; the “Live Cells, %” value is 81.0 ± 4.4 %. For the same compound, in the data set with HeLa cells [2], the “SubG1 (%)” value worked out at 8.1 ± 1.9 %, the “G2/M (%)” value amounted to 11.0 ± 1.5%, the “S (%)” value was 17.6 ± 1.2 % and the “G0/G1 (%)” value is listed as 63.3 ± 2.2 %.

Consider `CCC[C@@H]1NC2(C(=O)NC(=O)NC2=O)[C@]2(c3ccccc3)[C@@H](c3ccccc3)[C@]12c1ccccc1` [Compound 4d], for which, in the data set on HeLa cells [1], the “Necrotic Cells, %” value is given as 3.6 ± 1.8 %; the “Early Apoptotic Cells, %” value is on record as 11.6 ± 0.2 %; the “Late Apoptotic Cells, %” value is given as 38.1 ± 16.8 %; the “Live Cells, %” value is 46.8% and 46.8 ± 18.4 %. Further, in the data set on HeLa cells [2], the “SubG1 (%)” value is 18.1 ± 1.0 %, the “G2/M (%)” value is recorded as 8.4 ± 1.5 %, the “S (%)” value worked out at 15.5 ± 1.1 % and the “G0/G1 (%)” value worked out at 58.0 ± 4.4 %. In the data set with CT26 tumor, the “death of experimental animals by the end of the observation period” value (from here on “death of experimental animals”) is given as “No deaths”. For the same compound, in the data set with CT26 tumor (single i.p. injection), the “autopsy finding in the abdominal cavity (agglomerates of injected material)” value (from here on “autopsy finding in the abdominal cavity”) is given as “persistent, rounded, dense agglomerates of white or yellowish-white foreign material”.

As to `CCCC[C@@H]1NC2(C(=O)NC(=O)NC2=O)[C@]2(c3ccccc3)[C@@H](c3ccccc3)[C@]12c1ccccc1` [Compound 4e], in the data set on HeLa cells [1], the “Necrotic Cells, %” value came to 5.6 ± 2.6 %; the “Early Apoptotic Cells, %” value was found to be 18.1 ± 3.1 %; the “Late Apoptotic Cells, %” value turned out to be 61.3 ± 3.8 %; the “Live Cells, %” value was 15.0% and 15.0 ± 2.7 %. In addition, in the data set with HeLa cells [2], the “cytostatic effect (cell cycle), HeLa” value was “strongest cytostatic effect”; the “SubG1 (%)” value worked out at 34.4 ± 5.8 %; the “G2/M (%)” value is recorded as 5.7 ± 0.9 %; the “S (%)” value is 16.7 ± 1.2 %. The “G0/G1 (%)” value with HeLa cells [2] is on record as 43.1 ± 1.4 %. In addition, the “death of experimental animals” value in the data set on CT26 tumor is recorded as “two”. Moreover, the “autopsy finding in the abdominal cavity” value in the data set with CT26 tumor (single i.p. injection) was “persistent, rounded, dense agglomerates of white or yellowish-white foreign material”. Moreover, the “macroscopic signs of acute toxicity at autopsy” value with CT26 tumor (single i.p. injection, autopsy of abdominal organs) is “No signs of acute intoxication”.

Consider `CC(C)C[C@@H]1NC2(C(=O)NC(=O)NC2=O)[C@]2(c3ccccc3)[C@@H](c3ccccc3)[C@]12c1ccccc1` [Compound 4f], for which, in the data set with HeLa cells [1], the “rate of cell death in HeLa vs control” value was “not different from the control”; the “Necrotic Cells, %” value was found to be 2.1 ± 1.3 %; the “Early Apoptotic Cells, %” value was 2.9 ± 0.1 %; the “Late Apoptotic Cells, %” value is reported as 4.1 ± 0.5 %. In the data set with HeLa cells [1], the “Live Cells, %” value is 90.9 ± 1.6%. In the data set with HeLa cells [2], the “SubG1 (%)” value stood at 10.5 ± 2.0 %, the “G2/M (%)” value is listed as 12.8 ± 1.3%, the “S (%)” value is on record as 15.2 ± 1.2 % and the “G0/G1 (%)” value amounted to 61.5 ± 3.3 %. In addition, the “death of experimental animals” value in the data set on CT26 tumor was “one”.

For `CCCCCC[C@@H]1NC2(C(=O)NC(=O)NC2=O)[C@]2(c3ccccc3)[C@@H](c3ccccc3)[C@]12c1ccccc1` [Compound 4g], in the data set on HeLa cells [1], the “Necrotic Cells, %” value came to 6.3 ± 2.8 %; the “Early Apoptotic Cells, %” value is 38.5 ± 1.9 %; the “Late Apoptotic Cells, %” value turned out to be 38.0 ± 6.9 %; the “Live Cells, %” value is 17.1% and 17.1 ± 3.5 %. Moreover, in the data set on HeLa cells [2], the “cytostatic effect (cell cycle), HeLa” value is on record as “strongest cytostatic effect”; the “SubG1 (%)” value is 39.5 ± 5.0 %; the “G2/M (%)” value came to 5.3 ± 0.7 %; the “S (%)” value worked out at 13.3 ± 0.8%. For the same compound, the “G0/G1 (%)” value in the data set with HeLa cells [2] worked out at 41.8 ± 3.0 %.

As to `CSCC[C@@H]1NC2(C(=O)NC(=O)NC2=O)[C@]2(c3ccccc3)[C@@H](c3ccccc3)[C@]12c1ccccc1` [Compound 4h], in the data set on HeLa cells [1], the “Necrotic Cells, %” value stood at 1.9 ± 0.2 %; the “Early Apoptotic Cells, %” value turned out to be 9.8 ± 1.0 %; the “Late Apoptotic Cells, %” value is listed as 15.3 ± 0.5 %; the “Live Cells, %” value was 72.2% and 72.2 ± 0.4 %. In the data set with HeLa cells [2], the “SubG1 (%)” value is 9.9 ± 7.8 %, the “G2/M (%)” value came out at 12.6 ± 0.8%, the “S (%)” value stood at 13.9 ± 1.8% and the “G0/G1 (%)” value stood at 63.6 ± 6.8 %.

As for `O=C1NC(=O)C2(N[C@@H](c3ccccc3)[C@@]3(c4ccccc4)[C@H](c4ccccc4)[C@@]23c2ccccc2)C(=O)N1` [Compound 4i], in the data set with HeLa cells [1], the “Necrotic Cells, %” value worked out at 2.1 ± 0.9 %; the “Early Apoptotic Cells, %” value was 12.6 ± 0.8 %; the “Late Apoptotic Cells, %” value came to 17.3 ± 1.4 %; the “Live Cells, %” value is 67.9% and 67.9 ± 2.4 %. In addition, in the data set with HeLa cells [2], the “SubG1 (%)” value came to 20.1 ± 1.3 %, the “G2/M (%)” value amounted to 9.9 ± 0.8 %, the “S (%)” value is recorded as 18.1 ± 2.4 % and the “G0/G1 (%)” value came to 51.8 ± 4.0 %. Further, the “death of experimental animals” value in the data set on CT26 tumor was “three”. Further, the “autopsy finding in the abdominal cavity” value with CT26 tumor (single i.p. injection) is “persistent, rounded, dense agglomerates of white or yellowish-white foreign material”.
